Columns and labels:
[1] = target: T1, human LPA3 (Homo sapiens, UniProt Q9UBY5); assay: LPA3 calcium flux assay; type: cell-based; conditions: Human LPA3 expressing CHO cells, stimulated with 10 nM LPA; read-out: HLPA3 Ca Flux IC50
T1 construct: The full-length cDNA fragment for human LPA3 was obtained by PCR from the vector; expressed in transfected cells; cDNA from the Missouri S&T cDNA Resource Center
T1 sequence (Q9UBY5 1-353): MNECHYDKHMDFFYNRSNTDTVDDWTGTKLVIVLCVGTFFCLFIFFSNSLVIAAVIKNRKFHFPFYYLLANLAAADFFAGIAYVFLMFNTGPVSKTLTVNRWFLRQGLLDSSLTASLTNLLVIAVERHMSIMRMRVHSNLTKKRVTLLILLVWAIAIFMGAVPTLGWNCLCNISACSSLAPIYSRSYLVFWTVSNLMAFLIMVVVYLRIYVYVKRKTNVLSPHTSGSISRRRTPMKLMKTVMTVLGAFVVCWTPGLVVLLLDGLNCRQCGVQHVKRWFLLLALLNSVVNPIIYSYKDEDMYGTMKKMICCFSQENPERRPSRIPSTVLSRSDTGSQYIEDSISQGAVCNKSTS
Description: A vector containing the human LPA3 receptor cDNA was obtained from the Missouri S&T cDNA Resource Center (www.cdna.org). The full-length cDNA fragment for human LPA3 was obtained by PCR from the vector. The nucleotide sequence of the cloned human LPA3 was determined by sequencing and confirmed to be identical to the published human LPA3 sequence (NCBI accession number NM 012152). The cDNA was cloned into the pcDNA5/FRT expression plasmid and transfected in CHO cells using lipofectamine 2000 (Invitrogen Corp., USA). Clones stably expressing human LPA3 were selected using hygromycin and identified as cells that show Ca-influx in response to LPA.
Human LPA1 or LPA3 expressing CHO cells are seeded at 20,000-45,000 cells per well in a 96-well poly-D-lysine coated plate one or two days before the assay. Prior to the assay, the cells are washed once with PBS and then cultured in serum-free media overnight. On the day of the assay, a calcium indicator dye (Calcium 4, Molecular Devices) in assay buffer (HBSS with Ca^2+ and Mg^2+ and containing 20 mM Hepes and 0.3% fatty-acid free human serum albumin) is added to each well and incubation continued for 1 hour at 37° C. 10 μl of test compounds in 2.5% DMSO are added to the cells and incubation continued at room temperature for 30 minutes. Cells are the stimulated by the addition of 10 nM LPA and intracellular Ca^2+ measured using the Flexstation 3 (Molecular Devices). IC50s are determined using Graphpad prism analysis of drug titration curves.

[2] = target: T2, human LPA1 (Homo sapiens, UniProt Q92633); assay: LPA1 calcium flux assay (HLPA1 Ca Flux); type: cell-based; conditions: Human LPA1 expressing CHO cells, stimulated with 10 nM LPA
T2 construct: the full-length cDNA for human LPA1 was obtained by PCR of the reverse transcription reaction; expressed in transfected cells
In short: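 CHO cells stably expressing cloned human LPA1, serum-starved overnight and loaded with Calcium 4 dye, were preincubated 30 min at room temperature with compound. Cells were then challenged with 10 nM LPA and intracellular Ca2+ measured; IC50 values came from titration curves.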

T2 sequence (Q92633 whole entry): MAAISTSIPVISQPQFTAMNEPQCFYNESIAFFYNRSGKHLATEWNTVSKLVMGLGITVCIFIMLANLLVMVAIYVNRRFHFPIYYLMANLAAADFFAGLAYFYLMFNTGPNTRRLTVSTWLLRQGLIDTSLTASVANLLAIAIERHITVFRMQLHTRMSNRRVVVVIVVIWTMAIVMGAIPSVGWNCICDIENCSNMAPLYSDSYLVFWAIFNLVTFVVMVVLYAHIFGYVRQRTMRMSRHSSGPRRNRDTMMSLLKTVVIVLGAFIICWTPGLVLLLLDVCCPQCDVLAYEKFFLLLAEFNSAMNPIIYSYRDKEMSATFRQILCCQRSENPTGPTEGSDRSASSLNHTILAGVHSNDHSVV

IC50 [1] [µM]	IC50 [2] [nM]	Structure (SMILES)
1 to 50	< 300	Cc1noc(-c2ccc(-c3ccc(C(=O)O)nc3)cc2)c1NC(=O)OC(C)c1ccccc1Cl (stereo not drawn) [Compound 1-56, 5-(4-{4-[1-(2-Chloro-phenyl)-ethoxycarbonylamino]-3-methyl-isoxazol-5-yl}-phenyl)-pyridine-2-carboxylic acid]
1 to 50	< 300	Cc1noc(-c2ccc(-c3ccccc3CC(=O)O)cc2)c1NC(=O)OC(C)c1ccccc1Cl (stereo not drawn) [Compound 1-57, (4′-{4-[1-(2-Chloro-phenyl)-ethoxycarbonylamino]-3-methyl-isoxazol-5-yl}-biphenyl-2-yl)-acetic acid]
1 to 50	< 300	Cc1noc(-c2ccc(-c3ccc(CC(=O)O)cc3)cc2)c1NC(=O)OC(C)c1ccccc1Cl (stereo not drawn) [Compound 1-58, (4′-{4-[1-(2-Chloro-phenyl)-ethoxycarbonylamino]-3-methyl-isoxazol-5-yl}-biphenyl-4-yl)-acetic acid]
1 to 50	< 300	Cc1noc(-c2ccc(-c3cncc(CC(=O)O)c3)cc2)c1NC(=O)OC(C)c1ccccc1Cl (stereo not drawn) [Compound 1-63, [5-(4-{4-[1-(2-Chloro-phenyl)-ethoxycarbonylamino]-3-methyl-isoxazol-5-yl}-phenyl)-pyridin-3-yl]-acetic acid]
1 to 50	< 300	Cc1noc(-c2ccc(-c3cc(CC(=O)O)ccc3F)cc2)c1NC(=O)OC(C)c1ccccc1Cl (stereo not drawn) [Compound 1-64, (4′-{4-[1-(2-Chloro-phenyl)-ethoxycarbonylamino]-3-methyl-isoxazol-5-yl}-6-fluoro-biphenyl-3-yl)-acetic acid]
1 to 50	< 300	Cc1noc(-c2ccc(C3CCC(C(=O)O)CC3)cc2)c1NC(=O)OC(C)c1ccccc1Cl (stereo not drawn) [Compound 1-67, 4-(4-{4-[1-(2-Chloro-phenyl)-ethoxycarbonylamino]-3-methyl-isoxazol-5-yl}-phenyl)-cyclohexanecarboxylic acid]

Continued, compound first:

Structure (SMILES)	IC50 [1] [µM]	IC50 [2] [nM]
Cc1noc(-c2ccc(-c3cccc(CC(=O)O)c3)cc2)c1NC(=O)OC(C)c1ccccc1Cl (stereo not drawn) [Compound 1-59, (4′-{4-[1-(2-Chloro-phenyl)-ethoxycarbonylamino]-3-methyl-isoxazol-5-yl}-biphenyl-3-yl)-acetic acid]	1 to 50	< 300
Cc1noc(-c2cccc(-c3cccc(CC(=O)O)c3)c2)c1NC(=O)OC(C)c1ccccc1Cl (stereo not drawn) [Compound 1-60, (3′-{4-[1-(2-Chloro-phenyl)-ethoxycarbonylamino]-3-methyl-isoxazol-5-yl}-biphenyl-3-yl)-acetic acid]	1 to 50	1000 to 50000
Cc1noc(-c2ccc(-c3ccc(CC(=O)O)cn3)cc2)c1NC(=O)OC(C)c1ccccc1Cl (stereo not drawn) [Compound 1-61, [6-(4-{4-[1-(2-Chloro-phenyl)-ethoxycarbonylamino]-3-methyl-isoxazol-5-yl}-phenyl)-pyridin-3-yl]-acetic acid]	1 to 50	< 300
Cc1noc(-c2ccc(-c3ccc(CCC(=O)O)cc3)cc2)c1NC(=O)OC(C)c1ccccc1Cl (stereo not drawn) [Compound 1-62, 3-(4′-{4-[1-(2-Chloro-phenyl)-ethoxycarbonylamino]-3-methyl-isoxazol-5-yl}-biphenyl-4-yl)-propionic acid]	1 to 50	< 300
Cc1noc(-c2ccc(-c3ccc(F)c(CC(=O)O)c3)cc2)c1NC(=O)OC(C)c1ccccc1Cl (stereo not drawn) [Compound 1-65, (4′-{4-[1-(2-Chloro-phenyl)-ethoxycarbonylamino]-3-methyl-isoxazol-5-yl}-4-fluoro-biphenyl-3-yl)-acetic acid]	1 to 50	< 300
Cc1noc(-c2ccc(C3=CCC(C(=O)O)CC3)cc2)c1NC(=O)OC(C)c1ccccc1Cl (stereo not drawn) [Compound 1-66, 4-(4-{4-[1-(2-Chloro-phenyl)-ethoxycarbonylamino]-3-methyl-isoxazol-5-yl}-phenyl)-cyclohex-3-enecarboxylic acid]	1 to 50	< 300

— patent publication US20110301142A1, “ANTAGONISTS OF LYSOPHOSPHATIDIC ACID RECEPTORS” (priority 2008, published 2011)
